Data from patent US10550130B2, “Benzo-thiazolo-imidazole compounds and uses thereof” (KING SAUD UNIVERSITY, priority 2015, dated 2020).

Columns and labels:
Format in all cases: cell-based
[1] = system: ALDH-positive SKBR3 cells; test: Aldefluor assay (ALDH-positive cells)
Method: SKBr3 cells with or without treatment harvested, washed and incubated in aldefluor assay buffer containing an ALDH substrate (BAAA). For negative control, half of the cells of each sample was removed to another FACS tube and incubated under identical condition with DEAB (diethylaminobenzaldehyde), a specific inhibitor of ALDH enzyme.
Because SKBR3 cells include, among various cell lines tested, a particularly high percentage of ALDH-positive cells, SKBR3 cells were selected to evaluate whether KSA-101696 inhibits ALDH-positive cells in vitro.
After two days of treatment with 2.5 μM of KSA-101696, a more that 50% reduction in ALDH-positive cell percentage was observed (FIG. 5A).

MDA-MB-231 cells = test: Migration assay; details: Homo sapiens, 2.5 μM to 20 μM, read-out: IC50, migration capacity
Method: To assess the metastatic potential of tumor cells, their migration and invasion was evaluated using the 24-well BD BioCoat Matrigel Invasion Chamber as per the manufacturer guideline (BD Bioscience). In brief, 750 μl of migration buffer (serum-free media with or without treatment) or chemoattractants (serum-containing media) were added to the lower wells. Cells were washed three times in migration media and 500 μl (1-2×10^5) of cells were added to the upper wells separated by an 8 micron pore size PET membrane with a thin layer of matrigel basement membrane matrix (for invasion) or without (for migration). The membranes were stained with Diff Quick stain (Fisher Scientific) after removing the non-migrated cells from the top of the membrane with Q-tips. After air drying, the membranes were cut and mounted on slides with oil and cells that had migrated to the underside of the filter were counted using a light microscope (Zeiss Axio Observer) in five randomly selected fields (magnification: 40×). Each assay was performed in triplicate and repeated at least five times. The results were expressed as mean±SD of migrating cells per field counted (FIGS. 6A-6B).

[2] = system: ALDH+ CD24low/CD44High breast cancer stem cells (from MDA-MB-468 cells); test: Apoptosis in sorted breast cancer stem cells versus differentiated cells; details: 10 μM, two days; ALDH+ CD24low/CD44High vs ALDH- CD24High/CD44low from MDA-MB-468
Method: MDA-MB-468 Cells harvested, washed and incubated in aldefluor assay buffer containing an ALDH substrate (BAAA (BODIPY®-aminoacetaldehyde). For negative control, half of the cells of each sample was removed to another FACS tube and incubated under identical condition with DEAB, a specific inhibitor of ALDH enzyme. Then the cells were stained with the following directly conjugated monoclonal antibodies anti-mouse CD44-APC-Cy7 (Biolegend), anti-mouse CD24-Pacific Blue (EXBIO Praha, a.s.). All analyses and cell sorting were performed on a FACSAria™ cell sorter (BD Biosciences). Debris and cell clusters were excluded during side-scatter and forward-scatter analyses.
ALDH^+ CD24^low/CD44^High breast cancer stem cells were sorted and cultured for 24 h. Cells were then treated with 10 μM of the compound KSA-101696 for two days. At the same time, ALDH^− CD24^High/CD44^low breast cancer differentiated cells were used as a negative control to evaluate the selective apoptotic activity of the compound against breast cancer stem cells compared with differentiated phenotype from the same bulk population of MDA-MB-468 cells.

MCF-7 cells = test: Flow cytometric analysis of cellular DNA content (cell cycle distribution); details: 20 μM, 8, 16, 12 and 48 h
Method: 2×10^6 cells were fixed in 1 ml ethanol (70%) for 60 min at room temperature. Harvested cells were resuspended in 1 ml Na citrate (50 mM) containing 250 μg RNase A and incubated at 50° C. for 60 min. Next, cells were resuspended in the same buffer containing 4 μg propidium iodide (PI) and incubated for 30 min before being analyzed by flow cytometry (Becton Dickinson, San. Jose, Calif., USA). The percentage of cells in various cell cycle phases was determined by using Cell Quest Pro software (Becton Dickinson).
To gain insight into the mechanism by which anti-proliferation was achieved, the effect on cell cycle distribution was investigated by fluorescence-activated cell sorting (FACS) analysis. […] This was also accompanied by a compensatory decrease in G1 phase cells. Based on histograms the compound blocks the cells on early stage of mitosis, thereby inhibiting the transition of the cells to complete mitosis.

SKBR-3 = test: Annexin V binding by flow cytometry (apoptosis)
Method: (§1) It is known that loss of phospholipid asymmetry of the plasma membrane is an early event of apoptosis. The annexin V binds to negatively charged phospholipids, like phosphatidylserine. During apoptosis, the cells react to annexin V once chromatin condenses but before the plasma membrane loses its ability to exclude propidium iodide (PI).
(§2) Annexin-V staining was performed by using Vybrant Apoptosis Assay Kit #2 (Molecular Probes) following the manufacturer's recommendations. Annexin-V stained cells were analyzed by flow cytometry, measuring the fluorescence emission between 515 nm to 545 nm.
(§3) To evaluate the selective-apoptotic effect of the compound in cancer cells but not normal cells, the cancer cell lines SKBR3, MDA-MB-468, and normal cells MCF-10 A, HSFN1 (human foreskin cells) and BM4 (bone marrow derived mesenchymal stem cells) were used. […] Upon treatment of cells with 20 μM for 48 h, cells were stained with Annexin-V and PI and binding of Annexin-V and PI to the cells was determined by flow cytometry.
(§4) In a next step, it was investigated whether there was a correlation between Numb protein expression and sensitivity of a cell line to the apoptotic effects of KSA-101696. Apoptotic cells were determined by Annexin-V staining as described in Example 1.

MDA-MB-468 = test: Annexin V binding by flow cytometry (apoptosis)
Method: as §1, §2, §3, §4

intracellular Notch-1 = test: Immunofluorescence of intracellular Notch-1 in MDA-MB-231 breast cancer cells; details: MDA-MB-231 cells; FIGS. 1B and 1C
Method: MDA-MB-231 breast cancer cells were treated either with vehicle (control) or with 0.01 μM, 0.1 μM, 1 μM or 10 μM final concentration of doxorubicin, taxotere or KSA-101696. Then, the cells were cytospun to glass slides by centrifugation at 800 rpm for 3 min. Slides were then air-dried overnight and 4% formaldehyde fixed for 10 min. For staining, the cell membrane was permeabilized with 0.5% triton-X (Sigma) followed by overnight incubation with primary antibodies (anti-Numb, Abcam) and (anti-intracellular Notch-1, Cell Signalling) at 1:100. Cells were washed and stained with AlexaFluor goat anti-rabbit IgG 488 (Invitrogenat) 1:400 for 30 minutes. 300 nM DAPI (Invitrogen, Carlsbad, Calif., USA) was added for 10 minutes to counterstain the nuclei. Slides were mounted and immunofluorescence was visualized using BD Pathway 855 microscope.
Numb exerts its functional role on cell fate decisions by antagonizing Notch signaling activities. The molecular mechanisms underlying this relationship appear to rely on the ubiquitination of the membrane bound Notch-1 receptor and the subsequent degradation of its NICD (Notch intracellular domain) following receptor activation.

COc1ccc(-c2csc3nc4ccccc4n23)cc1 [KSA-101696, 3-(4-methoxyphenyl)benzo[4,5]imidazo[2,1-b]thiazole]
reduction in ALDH-positive cell percentage ([1]; 2.5 μM, two days): > 50%
IC50 ([1]; Homo sapiens, SK-BR-3): ~2 µM
IC50 (MDA-MB-231 cells): ~7.5 µM
induced apoptosis in cancer stem cells compared to differentiated breast cancer cells [2]: two-fold increase
cell cycle distribution (MCF-7 cells): accumulation of cells in G2/M phase in a time-dependent manner
apoptosis (Annexin-V) in relation to Numb expression (SKBR-3; SKBR-3, low levels of Numb expression, FIG. 9B): increased apoptosis
apoptosis (Annexin-V and PI) (SKBR-3; SKBR-3, 20 μM, 48 h): induced apoptosis
apoptosis (Annexin-V) in relation to Numb expression (MDA-MB-468; MDA-MB-468, low levels of Numb expression, FIG. 9B): increased apoptosis
apoptosis (Annexin-V and PI) (MDA-MB-468; MDA-MB-468, 20 μM, 48 h): induced apoptosis
concentration inhibiting intracellular Notch-1 by activating Numb expression (intracellular Notch-1): 0.625 µM
